Measurements from ChEMBL document CHEMBL2074131, “Inhibition of P-glycoprotein function by XR9576 in a solid tumour model can restore anticancer drug efficacy” (Eur J Cancer, 2004).

Target: ATP-dependent translocase ABCB1 (Homo sapiens, UniProt P08183)
Experiment: TP_TRANSPORTER: drug resistance (vinblastine) in NCI/ADRRes cells
Type: functional, cell-based

ATP-dependent translocase ABCB1, sequence (P08183 whole entry): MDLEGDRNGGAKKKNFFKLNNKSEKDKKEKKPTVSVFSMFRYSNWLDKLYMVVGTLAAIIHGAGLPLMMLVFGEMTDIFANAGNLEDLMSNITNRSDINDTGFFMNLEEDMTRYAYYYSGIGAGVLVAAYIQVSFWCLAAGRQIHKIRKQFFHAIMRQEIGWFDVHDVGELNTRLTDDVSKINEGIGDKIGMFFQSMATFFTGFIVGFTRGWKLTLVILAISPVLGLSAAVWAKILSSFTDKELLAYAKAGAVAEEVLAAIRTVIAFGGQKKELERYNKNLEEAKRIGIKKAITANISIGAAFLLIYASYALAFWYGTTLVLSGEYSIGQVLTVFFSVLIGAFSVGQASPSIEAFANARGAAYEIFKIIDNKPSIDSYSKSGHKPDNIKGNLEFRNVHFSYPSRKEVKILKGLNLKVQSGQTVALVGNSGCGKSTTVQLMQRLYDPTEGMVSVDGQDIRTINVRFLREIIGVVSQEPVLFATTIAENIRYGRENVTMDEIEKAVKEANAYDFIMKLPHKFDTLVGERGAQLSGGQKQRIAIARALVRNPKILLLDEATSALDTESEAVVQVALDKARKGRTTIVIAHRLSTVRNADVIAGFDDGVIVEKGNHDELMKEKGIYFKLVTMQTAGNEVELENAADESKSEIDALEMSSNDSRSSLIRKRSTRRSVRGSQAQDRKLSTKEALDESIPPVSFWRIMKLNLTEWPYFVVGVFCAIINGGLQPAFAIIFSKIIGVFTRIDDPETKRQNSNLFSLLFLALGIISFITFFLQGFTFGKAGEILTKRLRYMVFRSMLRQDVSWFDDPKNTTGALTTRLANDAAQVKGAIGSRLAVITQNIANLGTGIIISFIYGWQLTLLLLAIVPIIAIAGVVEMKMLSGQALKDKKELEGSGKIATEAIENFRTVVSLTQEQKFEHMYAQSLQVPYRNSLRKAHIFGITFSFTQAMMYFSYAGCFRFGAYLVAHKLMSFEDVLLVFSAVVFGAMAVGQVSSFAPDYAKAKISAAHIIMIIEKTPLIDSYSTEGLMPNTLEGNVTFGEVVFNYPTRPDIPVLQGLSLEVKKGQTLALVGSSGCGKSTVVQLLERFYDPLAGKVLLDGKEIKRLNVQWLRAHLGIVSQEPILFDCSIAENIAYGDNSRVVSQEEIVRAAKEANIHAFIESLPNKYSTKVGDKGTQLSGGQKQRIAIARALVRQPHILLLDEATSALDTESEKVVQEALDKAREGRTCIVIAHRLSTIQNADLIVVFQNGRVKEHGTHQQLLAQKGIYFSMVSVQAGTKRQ

Activity: inhibitor [+]
SMILES: COc1cc2c(cc1OC)CN(CCc1ccc(NC(=O)c3cc(OC)c(OC)cc3NC(=O)c3cnc4ccccc4c3)cc1)CC2 [TARIQUIDAR]
